We go through nine compounds from patent US3978225A, “Heterocyclic homoprostanoidal derivatives” (SmithKline Corporation, priority 1975, dated 1976).

The test system of one assay is prostaglandin synthesis. The experiment in a line: Inhibition of prostaglandin synthesis (arachidonic acid-dependent formation of adrenochrome from L-epinephrine). The class given is biochemical. Conditions: for Inhibition of prostaglandin synthesis: 1000 μM; for IC50: read-out: ID50, inhibition of prostaglandin synthesis. The source says: The prostaglandin synthesis inhibition method as employed is reported by Takeguchi and Sih, Prastaglandins, 2, 169, 1972. The principle entails the arachidonic acid-dependent formation of adrenochrome from L-epinephrine during prostaglandin biosynthesis. Indomethacin, phenylbutazone and aspirin were used as reference compounds.

Assay [1] deals with diarrhea induced by prostaglandin E2 (PGE2). The experiment in a line: Inhibition of PGE2 diarrhea in mice. Format: in vivo. Conditions: 15 minutes prior to i.p. PGE2. On the procedure:
The antagonism of diarrhea induced by prostaglandin E2 (PGE2) was determined by employing the modified standard animal pharmacological test procedure as reported in Intra Science Chem. Rept 6:1-9, 1972 and Annals of the New York Academy of Sciences 180:386-95, 1971. Briefly the test comprises administering the test compounds subcutaneously 15 minutes prior to an intraperitoneal injection of PGE2. Each animal is examined for diarrhea (which results after the administration of PGE2) every 15 minutes for one hour post-drug. Polyphloretin phosphate and 7 oxa-13-prostynoic acid, both well known antagonists of prostaglandin induced diarrhea, were employed as reference compounds. Results of tests conducted for the inhibition of PGE2 diarrhea in mice are disclosed in Table 2.

For the compound `CCCCCCCC[C@@H]1OS(=O)O[C@H]1CCCCCCCC(=O)OC` (relative stereo) [Compound C], in the assay with prostaglandin synthesis, the “Inhibition of prostaglandin synthesis” value is listed as 20%. The “Percent Change, Diarrhea Incidence” value is “+15%” in assay [1] (5 mg/kg S.C.), -31% in assay [1] (10 mg/kg S.C.), -54% in assay [1] (20 mg/kg S.C.) and -8% in assay [1] (40 mg/kg S.C.).
Turning to `CCCCCCCC[C@@H]1SC(=S)S[C@H]1CCCCCCCC(=O)O` (relative stereo) [Compound E, (8.xi.-trans)-10-thioxo-9,11-dithia-1a-homoprostan-1-oic acid], the IC50 with prostaglandin synthesis turned out to be 390 µM.
In the case of `CCCCCCCC[C@@H]1OCO[C@H]1CCCCCCCC(=O)O` (relative stereo) [Compound F, (8.xi.-trans)-9,11-dioxa-1a-homoprostan-1-oic acid], the “Inhibition of prostaglandin synthesis” value in the assay with prostaglandin synthesis came out at 30%. Also, the “Percent Change, Diarrhea Incidence” value was 0% in assay [1] (5 mg/kg S.C.), -36% in assay [1] (10 mg/kg S.C.), 0% in assay [1] (20 mg/kg S.C.) and -14% in assay [1] (40 mg/kg S.C.).
Consider `CCCCCCCC[C@@H]1OS(=O)O[C@@H]1CCCCCCCC(=O)OC` (relative stereo) [Compound G, (8.xi.-cis)-10-oxo-9,11-dioxa-10-thia-1a-homoprostan-1-oic acid, methyl ester], for which the “Percent Change, Diarrhea Incidence” value in assay [1] (5 mg/kg S.C.) is on record as -14%; in assay [1] (10 mg/kg S.C.), -29%; in assay [1] (20 mg/kg S.C.), -57%; in assay [1] (40 mg/kg S.C.), 0%.
Regarding `CCCCCCC#C[C@H]1CCC[C@@H]1OCCCCCC(=O)O` [7-oxa-13-prostynoic acid, reference compound], the figures for the “Percent Change, Diarrhea Incidence” value in assay [1] (0.2 mg/kg S.C.), in assay [1] (1 mg/kg S.C.) and in assay [1] (5 mg/kg S.C.) were -15%, -100% and -100%, respectively.
`CC(=O)Oc1ccccc1C(=O)O` [Aspirin, reference compound]: the IC50 in the assay on prostaglandin synthesis worked out at 3700 µM.
On the same count and under the same terms, under `COc1ccc2c(c1)c(CC(=O)O)c(C)n2C(=O)c1ccc(Cl)cc1` [Indomethacin, reference compound] stands 2 µM.
The same measure, in the same setting: as for `CCCCC1C(=O)N(c2ccccc2)N(c2ccccc2)C1=O` [Phenylbutazone, reference compound], the figure is 875 µM.
On to “polyphloretin phosphate [PPP, reference compound]”, for which the “Percent Change, Diarrhea Incidence” value in assay [1] (5 mg/kg S.C.) was -4%; in assay [1] (10 mg/kg S.C.), -26%; in assay [1] (20 mg/kg S.C.), -36%; in assay [1] (40 mg/kg S.C.), -65%; in assay [1] (80 mg/kg S.C.) it was -68%.
